In patent US9926305B2, “Salts” (Bayer Pharma Aktiengesellschaft, priority 2013, dated 2018):

Assays:
[1] = storage stability after processing via suspensions; type: physicochemical; details: crystalline salt, even after processing via suspensions
[2] = for some applications; suitability for use in formulations

Row | SMILES | storage stability [1] | solubility [2]
1 | Cn1c(=O)oc2cc(-n3cc(C(=O)O)c(=O)n([C@@H]4CCc5c4cccc5C(F)(F)F)c3=O)ccc21.NCCCC[C@H](N)C(=O)O [L-lysine salt, L-lysine salt of 1-(3-methyl-2-oxo-2,3-dihydro-1,3-benzoxazol-6-yl)-2,4-dioxo-3-[(1R)-4-(trifluoromethyl)-2,3-dihydro-1H-inden-1-yl]-1,2,3,4-tetrahydropyrimidine-5-carboxylic acid] | storage-stable | 
2 | Cn1c(=O)oc2cc(-n3cc(C(=O)O)c(=O)n([C@@H]4CCc5c4cccc5C(F)(F)F)c3=O)ccc21 [free acid, 1-(3-Methyl-2-oxo-2,3-dihydro-1,3-benzoxazol-6-yl)-2,4-dioxo-3-[(1R)-4-(trifluoromethyl)-2,3-dihydro-1H-inden-1-yl]-1,2,3,4-tetrahydropyrimidine-5-carboxylic acid] |  | insufficient solubility
3 | Cn1c(=O)oc2cc(-n3cc(C(=O)[O-])c(=O)n([C@@H]4CCc5c4cccc5C(F)(F)F)c3=O)ccc21.[K+] [potassium salt, potassium salt of 1-(3-methyl-2-oxo-2,3-dihydro-1,3-benzoxazol-6-yl)-2,4-dioxo-3-[(1R)-4-(trifluoromethyl)-2,3-dihydro-1H-inden-1-yl]-1,2,3,4-tetrahydropyrimidine-5-carboxylic acid] | storage-stable | 
4 | Cn1c(=O)oc2cc(-n3cc(C(=O)[O-])c(=O)n([C@@H]4CCc5c4cccc5C(F)(F)F)c3=O)ccc21.[Na+] [sodium salt, sodium salt of 1-(3-methyl-2-oxo-2,3-dihydro-1,3-benzoxazol-6-yl)-2,4-dioxo-3-[(1R)-4-(trifluoromethyl)-2,3-dihydro-1H-inden-1-yl]-1,2,3,4-tetrahydropyrimidine-5-carboxylic acid] | storage-stable | 
